{"source": "patent US6159964A", "about": "“Vitronectin receptor antagonists” (SmithKline Beecham Corporation, priority 1999, dated 2000)", "origin": "cited, not measured here", "test_system": "fibrinogen receptor", "settings": "template of WO 93/08174"}
{"smiles": "N=C(N)c1ccc(NC(=O)c2ccc3c(c2)CN(CCc2ccccc2)C(=O)C(CC(=O)O)N3)cc1", "note": "(racemic) [(R,S)-7-[[[4-(aminoiminomethyl)phenyl]amino]carbonyl]-4-(2-phenylethyl)-1,3,4,5-tetrahydro-3-oxo-2H-1,4-benzodiazepine-2-acetic acid]", "values": [{"measurement": "fibrinogen antagonist activity (in words)", "result": "potent and selective fibrinogen antagonist"}]}
